Results reported in US20100048633A1, “Piperidine-4-acrylamides” (priority 2007, published 2010).

Assays:
human CCR3 = molecular target: T1, human CCR3 (Homo sapiens, UniProt P51677); assay: binding of [125I]-human eotaxin to human CCR3 (SPA, membranes of RBL-2H3 cells expressing CCR3); conditions: [125I]-human eotaxin 50 pM, 4 hours at room temperature; read-out: IC50 (concentration of test compound at which 50% inhibition of eotaxin binding to CCR3 occurs)
T1 construct: expressed in transfected cells; membranes
T1 sequence (P51677 1-355): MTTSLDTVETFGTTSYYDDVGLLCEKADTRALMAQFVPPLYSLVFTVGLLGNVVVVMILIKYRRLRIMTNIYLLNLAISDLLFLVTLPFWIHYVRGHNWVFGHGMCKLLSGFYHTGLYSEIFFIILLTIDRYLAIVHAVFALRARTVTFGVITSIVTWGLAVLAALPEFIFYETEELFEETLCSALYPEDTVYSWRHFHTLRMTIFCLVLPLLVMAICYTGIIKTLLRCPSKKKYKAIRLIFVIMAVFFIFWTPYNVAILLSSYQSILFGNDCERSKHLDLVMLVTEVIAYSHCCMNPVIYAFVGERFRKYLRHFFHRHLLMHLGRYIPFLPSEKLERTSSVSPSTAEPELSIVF
Experimental: In this assay the effect of the compounds of the present invention on the binding of human eotaxin to human CCR3 is determined. Recombinant cells expressing human CCR3 are captured by wheatgerm agglutinin (WGA) polyvinyltoluidene (PVT) SPA beads (available from Amersham), through a specific interaction between the WGA and carbohydrate residues of glycoproteins on the surface of the cells. [^125I]-human eotaxin (available from Amersham) binds specifically to CCR3 receptors bringing the [^125I]-human eotaxin in close proximity to the SPA beads. Emitted â-particles from the [^125I]-human eotaxin excite, by its proximity, the fluorophore in the beads and produce light.
Preparation of Assay Buffer 5.96 g HEPES and 7.0 g sodium chloride are dissolved in distilled H2O and 1 M aq. CaCl2 (1 ml) and 1 M aq. MgCl2 (5 ml) are added. The pH is adjusted to 7.6 with NaOH and the solution made to a final volume of 1 L using distilled H2O. 5 g of bovine serum albumin and 0.1 g NaN3 are dissolved in the solution and the resulting buffer stored at 4° C. […]
The assay is performed in a final volume of 250 μl per well of an Optiplate™ microplate (ex Canberra Packard). […] The resulting scintillations are counted using a Canberra Packard TopCount™ scintillation counter, each well being counted for 1 minute. […]

Structure (SMILES) | melting point [°C] | IC50 (human CCR3) [nM]
O=C(C=C1CCN(CCc2ccc(F)cc2)CC1)NCc1ccc(F)c(F)c1 [Example 17, N-(3,4-Difluoro-benzyl)-2-{1-[2-(4-fluoro-phenyl)-ethyl]-piperidin-4-ylidene}-acetamide] | 117 to 120 | ~200
O=C(C=C1CCN(Cc2ccc(F)cc2)CC1)NCc1ccc(F)c(F)c1 [Example 1, N-(3,4-Difluoro-benzyl)-2-[1-(4-fluoro-benzyl)-piperidin-4-ylidene]-acetamide] | 83 to 85 | –
